Data published in PubChem BioAssay (NCI).
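The compound was tested at five concentrations on cells cultured in 96-well plates, with a 48-hour exposure period. TGI: concentration producing complete growth inhibition.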

Experiments:
Experiment in all cases: NCI-60 cell line screen, 48 h
[1] = tested on: SK-MEL-28 melanoma
[2] = tested on: SW-620 colon
[3] = tested on: K-562 leukemia
[4] = tested on: SF-295 CNS
[5] = tested on: TK-10 renal
[6] = tested on: MDA-N
[7] = tested on: 786-0 renal
[8] = tested on: BT-549 breast
[9] = tested on: CCRF-CEM leukemia
[10] = tested on: M14 melanoma
[11] = tested on: SR leukemia
[12] = tested on: T-47D breast
[13] = tested on: RXF 393 renal
[14] = tested on: HT29 colon
[15] = tested on: UACC-257 melanoma
[16] = tested on: CAKI-1 renal

Row | Compound | TGI [1] [µM] | TGI [2] [µM] | TGI [3] [µM] | TGI [4] [µM] | TGI [5] [µM] | TGI [6] [µM] | TGI [7] [µM] | TGI [8] [µM] | TGI [9] [µM] | TGI [10] [µM] | TGI [11] [µM] | TGI [12] [µM] | TGI [13] [µM] | TGI [14] [µM] | TGI [15] [µM] | TGI [16] [µM]
1 | CCCCCCCCCC1CC(=O)NCC(=O)NC(C(C)C)C(=O)NC(CC(C)C)C(=O)NC(C)C(=O)NC(C(C)C)C(=O)O1 (stereo unspecified) | 36.6 | > 33.6 | > 53.3 | 37 | 68.9 | > 100 | 35 | > 100 | > 56.4 | > 100 | > 92.4 | > 100 | > 94.9 | 21.5 | > 88 | > 100
2 | CN(C)c1ccc(N=Nc2cccc3ncccc23)cc1 | > 100 | > 100 | > 100 | > 100 | > 100 | > 100 | > 100 | > 100 | > 100 | > 100 | > 100 | > 100 | > 100 | > 100 | > 100 | > 100
3 | CC(=O)N1N=C(c2c(O)ccc3ccccc23)CC1c1ccc(Cl)cc1 (stereo unspecified) | 74 | > 100 | 43.3 | 54.2 | > 100 | 40.5 | > 100 | 51.1 | 25.7 | 33.5 | 28.3 | > 100 | 42.9 | 69.5 | > 100 | > 100
4 | CC(C)c1ccc2[nH]c(O)c(C3=Nc4ccccc4C3=O)c2c1 | > 100 | > 100 | > 100 | > 100 | 54.2 | > 100 | 12.3 | 69.6 | > 100 | > 100 | 54.5 | 17.2 | 6.71 | > 100 | > 100 | > 100
5 | Cc1cc(-c2nc3cc(O)ccc3s2)ccc1N | 75.5 | > 100 | > 100 | 73.4 | > 100 | > 100 | > 100 | > 100 | 96.8 | 52.4 | > 100 | 72.3 | > 100 | 50.7 | > 100 | > 100
6 | COc1ccc(/C=C2\CN(C)CC3C2=NC(=S)NC3c2ccc(OC)cc2)cc1 (stereo unspecified) | > 100 | > 100 | > 100 | > 75.8 | > 100 | 3.74 | > 68.5 | > 100 | > 24.7 | 15.8 | > 100 | > 29.9 | 7.49 | 83.1 | > 100 | > 100
7 | CN(C)CCCNc1ccc2nnn3c4ccc(OC(=O)c5ccc([N+](=O)[O-])cc5)cc4c(=O)c1c23 | 26.6 | 17 | 18.9 | 20.5 | 24.9 | 26 | 16.6 | 35.8 | 5.39 | 27 | 11.5 | 88.5 | 9.08 | 20.6 | 31 | 7.59
8 | O=[N+]([O-])c1ccc(NC(=S)Nc2ccccn2)cc1 | > 100 | > 100 | > 100 | > 100 | > 93.2 | > 100 | > 59 | > 100 | > 100 | > 100 | > 100 | > 100 | 17.8 | > 100 | > 100 | 18.9
9 | COC(=O)/C=C(/C(=O)OC)c1c(C)cc2c(C)cc(C)cc(C)c1-2 | > 100 | > 100 | > 100 | 29.3 | > 83.3 | 5.16 | 41.1 | 47.1 | > 100 | 35.1 | > 100 | > 100 | 49.2 | 28.3 | > 77.5 | > 100
10 | O/N=C1\CCc2cc3c(cc21)CCC3 | > 100 | > 100 | > 100 | > 100 | > 100 | > 100 | > 100 | > 100 | > 100 | > 100 | > 100 | > 100 | > 100 | > 100 | > 100 | > 100
11 | Cc1ccc(/C(O)=C/c2nc3ccccc3[nH]c2=O)c(C)c1 | 54.6 | > 100 | > 100 | 53 | 21.1 | > 100 | 14.7 | > 57.5 | > 100 | > 96 | > 100 | > 69.7 | > 49.2 | > 86.3 | > 75.9 | 18.3
